From the supplement of paper PMC10307832

How the values were obtained:
Test in all cases: relative viability (nuclei count vs DMSO), 5 days (fraction); higher = more cells survive
GW-2580 + Trametinib = compound: COC1=CC=C(C=C1)COC2=C(C=C(C=C2)CC3=CN=C(N=C3N)N)OC [GW-2580] + CC(=O)Nc1cccc(-n2c(=O)n(C3CC3)c(=O)c3c(Nc4ccc(I)cc4F)n(C)c(=O)c(C)c32)c1 [Trametinib] (partner 0.02 µM)
In short: (§1)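 Lung cancer cell lines in 1536-well plates were dosed by pin tool the day after seeding, either with one drug alone or with a fixed anchor-drug dose plus five library-drug doses (not always all listed) in √10 steps. After 5 days, cells were fixed and their nuclei stained in one step (final 0.05% Triton X-100, 1% formaldehyde, 1 ug/ml Hoechst), then counted on 4× images. Relative viability is the nuclei count in treated wells divided by that in vehicle wells. Values are medians of duplicate plates.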

GW-2580 + Alpelisib = compound: COC1=CC=C(C=C1)COC2=C(C=C(C=C2)CC3=CN=C(N=C3N)N)OC [GW-2580] + Cc1nc(NC(=O)N2CCC[C@H]2C(N)=O)sc1-c1ccnc(C(C)(C)C(F)(F)F)c1 [Alpelisib] (partner 2 µM)
In short: as §1

GW-2580 + Phenformin = compound: COC1=CC=C(C=C1)COC2=C(C=C(C=C2)CC3=CN=C(N=C3N)N)OC [GW-2580] + N=C(N)NC(=N)NCCc1ccccc1 [Phenformin] (partner 250 µM)
In short: as §1

Fedratinib + Bortezomib = compound: Cc1cnc(Nc2ccc(OCCN3CCCC3)cc2)nc1Nc1cccc(S(=O)(=O)NC(C)(C)C)c1 [Fedratinib] + CC(C)C[C@H](NC(=O)[C@H](Cc1ccccc1)NC(=O)c1cnccn1)B(O)O [Bortezomib] (partner 0.002 µM)
In short: as §1

Fedratinib + Vorinostat = compound: Cc1cnc(Nc2ccc(OCCN3CCCC3)cc2)nc1Nc1cccc(S(=O)(=O)NC(C)(C)C)c1 [Fedratinib] + O=C(CCCCCCC(=O)Nc1ccccc1)NO [Vorinostat] (partner 1 µM)
In short: as §1

Cell Line	relative viability (GW-2580 + Trametinib; first compound 0.08 µM)	relative viability (GW-2580 + Trametinib; first compound 0.8 µM)	relative viability (GW-2580 + Trametinib; first compound 2.53 µM)	relative viability (GW-2580 + Trametinib; first compound 8 µM)	relative viability (GW-2580 + Alpelisib; first compound 0.08 µM)	relative viability (GW-2580 + Alpelisib; first compound 0.8 µM)	relative viability (GW-2580 + Alpelisib; first compound 2.53 µM)	relative viability (GW-2580 + Alpelisib; first compound 8 µM)	relative viability (GW-2580 + Phenformin; first compound 0.08 µM)	relative viability (GW-2580 + Phenformin; first compound 0.8 µM)	relative viability (GW-2580 + Phenformin; first compound 2.53 µM)	relative viability (GW-2580 + Phenformin; first compound 8 µM)	relative viability (Fedratinib + Bortezomib; first compound 0.1 µM)	relative viability (Fedratinib + Bortezomib; first compound 0.3162 µM)	relative viability (Fedratinib + Bortezomib; first compound 1 µM)	relative viability (Fedratinib + Vorinostat; first compound 0.1 µM)	relative viability (Fedratinib + Vorinostat; first compound 0.3162 µM)	relative viability (Fedratinib + Vorinostat; first compound 1 µM)
201T	0.76	0.753	0.754	0.748	1.02	1.1	1.01	1.01	0.466	0.418	0.461	0.433	1.01	1.07	1.08	0.935	0.975	0.955
A549					0.723	0.688	0.721	0.764	0.19	0.193	0.105	0.0849						
A-427	0.785	0.675	0.648	0.704	1.08	1.12	1.02	1.09	0.407	0.258	0.303	0.269	0.95	0.889	0.558	0.873	0.792	0.781
ABC-1					1.36	0.944	0.93	0.891	0.236	0.226	0.234	0.224	0.339	0.363	0.186	0.983	1.06	0.888
BEN	1.05	1.1	0.898	0.979	0.996	1.07	1.04	1.03	0.266	0.33	0.255	0.317	0.673	0.607	0.559	0.544	0.577	0.55
CAL-12T	0.33	0.284	0.356	0.436	1.45		1.19	1.06	0.624	0.613	0.609	0.514	0.963	1.07	0.805	0.747	0.84	0.681
COR-L23	0.684	0.632	0.549	0.67	0.856	0.83	0.611	0.815	0.458	0.53	0.478	0.463	1.14	0.975	0.938	0.407	0.487	0.392
COR-L 105	0.404	0.409	0.418	0.442	0.91	1.28	0.946	0.902	0.529	0.478	0.508	0.491	0.685	0.839	0.289	0.825	0.904	0.676
Calu-6					1.08	0.964	0.902	1.07					1.05	0.981	0.771			
ChaGo-K-1	0.921	0.921	0.881	0.867					0.594	0.476	0.454	0.514	0.932	1.1	0.777	0.74	0.757	0.718
EBC-1					0.91	1	0.746	0.887					0.478	0.501	0.39			
